# “Also recorded” adds a separate entry of the source.
# Key:
# [1] = system: Karpas-299 cells; assay: Cellular toxicity test (1), CellTiter-Glo, Karpas-299; assay type: cell-based; conditions: Homo sapiens, 96 h, cultured 4 days, cell viability
# Protocol: (§1) SU-DHL-1 cells (American Type Culture Collection, hereinafter, ATCC) and Karpas-299 cells (European Collection of Authenticated Cell Cultures, hereinafter, ECACC), which are human lymphoma cell lines, were cultured in RPMI 1640 (GIBCO) containing 10% fetal bovine serum (MP Biomedicals) (hereinafter, referred to as the “culture medium” in this test). SU-DHL-1 cells and Karpas-299 cells were prepared to be 2×10^6 cells/mL in the culture medium, and were added to a 96 well microplate for cell culturing in an amount of 50 μL for each well. Compounds of Examples or hemiasterlin 4 times diluted with the culture medium in 8 stages were added to the microplate in an amount of 50 μL for each well. To wells to which the test substance was not added, the culture medium was added in an amount of 50 μL for each well. These were cultured at 37 degree under 5% CO2 for 4 days. After culturing, the microplate was taken out from the incubator, and was left at rest at room temperature for 10 minutes. To each well, 50 μL of CellTiter-Glo Luminescent Cell Viability Assay (Promega) was added, and the resultant mixture was stirred. This mixture was incubated at a dark place for 20 minutes. Using a microplate luminometer, luminescence at each well was measured, thereby calculating the cell viability for each concentration of the test substance. From the cell viability, the IC50 value of the test substance was determined.
# (§2) The IC50 value was calculated by the following formula: IC50(nM)=antilog(LOG10(a/b)×(e−d)/(c−d)+LOG10b) • a: concentration a of test substance • b: concentration b of test substance • c: cell viability upon adding test substance with concentration a • d: cell viability upon adding test substance with concentration b • e: intermediate value between maximum and minimum among cell viabilities upon • adding test substances with different concentrations (a and b are concentrations crossing the cell viability e, and a>b is indicated).
# (§3) The cell viability at each concentration was calculated by the following formula: Cell Viability (%)=a′/b′×100 • a′: mean value of luminescence amount of wells to which test substance was added (n=6) • b′: mean value of luminescence amount of wells to which test substance was not added (n=6) • (n represents the number of evaluations performed per test substance concentration).
# [2] = in vitro; conditions: PAMPA, pH 7.4
# Protocol: By the parallel artificial membrane permeability assay (PAMPA), the membrane permeability of compounds of Examples was examined as follows: To the donor plate, System solution (pION inc.) and GIT Lipid-0 (pION inc.) were added in an amount of 200 μL and 4 μL for each well, respectively. To the acceptor plate, Acceptor Sink Buffer (pION inc.) was added in an amount of 200 μL. Both plates were superposed and incubated at 37° C. for 4 hours, and then, UVs in the solutions on the side of acceptor and on the side of donor were measured with an UV plate reader (190 to 500 nm). Compounds with poor UV absorption were measured by LC-MS. The permeability coefficient Pe (10^−6 cm/sec) of the drug was calculated by the following formula.
# [3] = system: SK-BR-3 cells; assay: Cellular toxicity test (2), CellTiter-Glo, SK-BR-3; assay type: cell-based; conditions: Homo sapiens, 72 h, cultured 3 days, cell viability
# Protocol: as §2, §3
# SK-BR-3 cells (ATCC), which are a human breast cancer cell line, were cultured in McCoy's 5A (GIBCO) containing 10% fetal bovine serum (MP Biomedicals) (hereinafter, referred to as the “culture medium” in this test). SK-BR-3 cells were prepared to be 2×10^6 cells/mL in the culture medium, added to a 96 well microplate for cell culturing in an amount of 50 μL for each well, and cultured at 37 degree under 5% CO2 overnight, and then, compounds of Examples or hemiasterlin 4 times diluted with the culture medium in 8 stages were added to the microplate in an amount of 50 μL for each well. To wells to which the test substance was not added, the culture medium was added in an amount of 50 μL for each well. These were cultured at 37 degree under 5% CO2 for 3 days. After culturing, the microplate was taken out from the incubator, and was left at rest at room temperature for 10 minutes. 50 μL of CellTiter-Glo Luminescent Cell Viability Assay (Promega) was added, and the resultant mixture was stirred. This mixture was incubated at a dark place for 20 minutes. Using a microplate luminometer, luminescence at each well was measured, thereby calculating the cell viability for each concentration of the test substance. The IC50 value was calculated in accordance with the method described in Test Example 3.
# [4] = target: porcine tubulin (Sus scrofa, UniProt P02550+P02554); assay: Activity for inhibiting microtubule polymerization using porcine tubulins (1); assay type: biochemical; parameters: purchased Cytoskeleton Inc. BK006P; conditions: compound 0.91 μM; absorbance at 340 nm, 37° C.; FIG. 1 and FIG. 2
# Chain of porcine tubulin (P02554 whole entry): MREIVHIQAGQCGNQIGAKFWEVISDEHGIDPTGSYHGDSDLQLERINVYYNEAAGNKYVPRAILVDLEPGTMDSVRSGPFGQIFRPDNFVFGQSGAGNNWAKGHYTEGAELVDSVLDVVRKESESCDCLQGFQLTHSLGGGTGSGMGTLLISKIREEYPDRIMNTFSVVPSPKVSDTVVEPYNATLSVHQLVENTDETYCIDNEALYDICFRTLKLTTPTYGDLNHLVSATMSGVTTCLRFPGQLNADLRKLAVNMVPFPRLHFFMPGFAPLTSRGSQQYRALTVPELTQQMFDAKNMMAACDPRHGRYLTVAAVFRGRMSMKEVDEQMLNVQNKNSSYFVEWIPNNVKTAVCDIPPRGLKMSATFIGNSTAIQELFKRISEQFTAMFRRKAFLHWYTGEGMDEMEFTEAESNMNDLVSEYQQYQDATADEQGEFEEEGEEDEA
# Chain of porcine tubulin (P02550 whole entry): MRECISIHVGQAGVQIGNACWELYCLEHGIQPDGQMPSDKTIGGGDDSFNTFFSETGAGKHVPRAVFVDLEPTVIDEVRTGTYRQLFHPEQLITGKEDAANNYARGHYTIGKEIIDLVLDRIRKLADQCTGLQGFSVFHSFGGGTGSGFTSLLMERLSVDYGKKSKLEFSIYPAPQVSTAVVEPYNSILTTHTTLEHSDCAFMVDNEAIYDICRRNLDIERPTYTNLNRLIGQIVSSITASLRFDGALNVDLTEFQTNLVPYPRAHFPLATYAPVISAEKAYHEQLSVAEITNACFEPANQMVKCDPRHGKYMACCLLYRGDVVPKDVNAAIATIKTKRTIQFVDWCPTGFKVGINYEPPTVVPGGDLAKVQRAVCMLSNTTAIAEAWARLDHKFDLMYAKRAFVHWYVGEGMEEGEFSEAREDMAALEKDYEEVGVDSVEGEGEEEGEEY
# [5] = Pharmacokinetic evaluation test using mice; assay type: in vivo
# Protocol: A pharmacokinetic evaluation test was performed by single intravenous administration of Example 4 at a dose of 1.0 mg/kg to mice. A calibration curve was made from measurements of Example 4 with known concentration, and by interpolating measurements of each specimen to this, the amount of the compound contained in unit volume of each plasma was calculated using LC-MS. Pharmacokinetics of compound 14 and hemiasterlin were similarly evaluated.
# (n.d. in the tables means less than the detection limit value (0.5 ng/mL).)
# [6] = system: SU-DHL-1 cells; assay: Cellular toxicity test (1), CellTiter-Glo, SU-DHL-1; assay type: cell-based; conditions: Homo sapiens, 96 h, cultured 4 days, cell viability
# Protocol: as §1, §2, §3
compound,measurement,setting,value
CCOC(=O)[C@@H](CCC(=O)O)NC(=O)/C(C)=C/[C@H](C(C)C)N(C)C(=O)[C@@H](NC(=O)[C@@H](NC)C(C)(C)c1cn(C)c2ccccc12)C(C)(C)C [Example 14],IC50,[1],0.12 nM
same,Papp,[2],4.5 ×10⁻⁶ cm/s
same,IC50,[3],1.03 nM
same,activity for inhibiting microtubule polymerization,[4],exhibited activities for inhibiting microtubule polymerization; also recorded: exhibited polymerization inhibitory activity concentration-dependently
same,half-life,"[5]; mouse, plasma, 1 mg/kg, single intravenous administration",< 30 min
same,Blood concentration of Example 14,"[5]; single intravenous administration of Example 14, 0.5 hr, animal 1",n.d. (less than the detection limit value (0.5 ng/mL))
same,Blood concentration of Example 14,"[5]; single intravenous administration of Example 14, 0.5 hr, animal 2",n.d. (less than the detection limit value (0.5 ng/mL))
same,Blood concentration of Example 14,"[5]; single intravenous administration of Example 14, 0.5 hr, animal 3",n.d. (less than the detection limit value (0.5 ng/mL))
same,"Blood concentration of Example 14, mean","[5]; single intravenous administration of Example 14, 0.5 hr",n.d. (less than the detection limit value (0.5 ng/mL))
same,Blood concentration of Example 14,"[5]; single intravenous administration of Example 14, 2 hr, animal 1",n.d. (less than the detection limit value (0.5 ng/mL))
same,Blood concentration of Example 14,"[5]; single intravenous administration of Example 14, 2 hr, animal 2",n.d. (less than the detection limit value (0.5 ng/mL))
same,Blood concentration of Example 14,"[5]; single intravenous administration of Example 14, 2 hr, animal 3",n.d. (less than the detection limit value (0.5 ng/mL))
same,"Blood concentration of Example 14, mean","[5]; single intravenous administration of Example 14, 2 hr",n.d. (less than the detection limit value (0.5 ng/mL))
same,Blood concentration of Example 14,"[5]; single intravenous administration of Example 14, 6 hr, animal 1",n.d. (less than the detection limit value (0.5 ng/mL))
same,Blood concentration of Example 14,"[5]; single intravenous administration of Example 14, 6 hr, animal 2",n.d. (less than the detection limit value (0.5 ng/mL))
same,Blood concentration of Example 14,"[5]; single intravenous administration of Example 14, 6 hr, animal 3",n.d. (less than the detection limit value (0.5 ng/mL))
same,"Blood concentration of Example 14, mean","[5]; single intravenous administration of Example 14, 6 hr",n.d. (less than the detection limit value (0.5 ng/mL))
same,Blood concentration of Example 14,"[5]; single intravenous administration of Example 14, 24 hr, animal 1",n.d. (less than the detection limit value (0.5 ng/mL))
same,Blood concentration of Example 14,"[5]; single intravenous administration of Example 14, 24 hr, animal 2",n.d. (less than the detection limit value (0.5 ng/mL))
same,Blood concentration of Example 14,"[5]; single intravenous administration of Example 14, 24 hr, animal 3",n.d. (less than the detection limit value (0.5 ng/mL))
same,"Blood concentration of Example 14, mean","[5]; single intravenous administration of Example 14, 24 hr",n.d. (less than the detection limit value (0.5 ng/mL))
same,IC50,[6],0.24 nM
